According to patent US20110269231A1, “PROTEOGLYCAN-BINDING PEPTIDES THAT MODULATE STEM CELL BEHAVIOR” (WISCONSIN ALUMNI RESEARCH FOUNDATION, priority 2010, published 2011):
Square brackets hold non-standard residues; d marks the D form. Ends that are not written are not given here. Gla = N[C@@H](CC(C(=O)O)C(=O)O)C(=O)O

Assays:
[1] = system: human umbilical vein endothelial cells (HUVECs); assay: HUVEC proliferation versus KRTGQYKL surface density and FGF-2 concentration; type: cell-based; conditions: 2% RGDSP, 10% FBS
Protocol: Human umbilical vein endothelial cells (HUVECs) as a model cell type were used to investigate the correlation between the surface density of bound heparin PGs, the concentration of soluble FGF-2, and the extent of up-regulation of FGF-mediated cell proliferation.
HUVECs were cultured according to the protocol supplied by the manufacturer. Sub-confluent cells were harvested from the plate, suspended in M199 supplemented with 10% FBS, and counted using a hemacytometer. Cells were collected as a pellet by centrifugation at 1100 rpm for 5 minutes, the media was decanted off of the pellet, and the cells were suspended in fresh serum-supplemented M199 at a density of 20,000 cells/250 μL. SAMs presenting 2% RGDSP (SEQ ID NO: 8) and various densities of KRTGQYKL (SEQ ID NO: 1) were prepared by incubating NHS-activated SAMs in 1× PBS solutions containing 125 μM RGDSP (SEQ ID NO: 8), and various molar ratios of KRTGQYKL (SEQ ID NO: 1) and TYRKKGLQ (SEQ ID NO: 9) at a total concentration of 125 μM Immediately after peptide conjugation, HUVECs were seeded on the SAM substrates at a density of 10,000 cells/cm^2 in M199 supplemented with 10% FBS. […] Brightfield photomicrographs (40× mag) of each substrate were collected on an Olympus IX51 inverted epifluorescent microscope at t=0, 24, 48, and 72 hrs, and the total number of cells per viewing area was counted manually.

hMSCs [2] = assay: hMSC adhesion on RGESP- and RGDSP-presenting SAMs; type: cell-based, human; conditions: for hMSC attachment (number per unit area): RGDSP=0.0001, 0.001 or 0.01 vs RGESP alone, 12 hrs attachment
Protocol: (§1) To maintain multipotency, hMSCs were expanded at low density on tissue culture treated polystyrene plates. At passage 6, cells were harvested from the plate, suspended in medium supplemented with 10% fetal bovine serum, and counted using a hemacytometer. Cells were collected as a pellet by centrifugation at 1100 rpm for 5 minutes, the media was decanted off of the pellet, and the cells were suspended in fresh αMEM at a density of 20,000 cells/250 μL. SAM preparation and peptide conjugation were performed using the protocols described above Immediately after peptide conjugation, SAMs were placed into 1 mL of 1× PBS (pH 7.4) in a 12-well tissue culture plate to prevent degradation of the monolayer due to air oxidation. PBS was aspirated from the wells and replaced with 1.25 mL of αMEM, followed by addition of 250 μL of the cell suspension directly over the SAM substrate in each well. Plates were then gently rocked for 10 seconds to evenly distribute cells over the substrate surface. Substrates were then incubated for a specified time frame (12 hrs for RGESP/RGDSP SAMs, 4 hrs for RGDSP/TYRSRKY SAM in a humid environment at 37° C., 5% CO2 to allow hMSC attachment. At the end of the attachment period, the hMSC growth media was aspirated from the well and the substrates were gently washed with sterile 1× PBS to remove any loosely bound cells. The 1× PBS solution was then replaced with fresh medium. Brightfield photomicrographs of cells were then collected using an Olympus IX51 inverted microscope.
(§2) hMSCs were seeded on the SAMs as described previously. After washing away loosely bound cells using 1× PBS, cytoskeletal immunostaining of hMSCs was performed by following the protocol supplied by the manufacturer. Briefly, a 4% paraformaldehyde solution in 1× PBS was added to the wells for 15 minutes to fix the cells, followed by a 5 minute incubation in a 1× PBS solution containing 0.05% Tween-20 to permeabilize the cells. […] After blocking, a 1× PBS solution containing an anti-Vinculin primary antibody was added to each well and allowed to incubate at room temperature for 60 minutes. The wells were then washed gently three times using a 1× PBS solution containing 0.1 wt % bovine serum albumin. Immediately after washing, a 1× PBS solution containing a fluorescein-tagged […] secondary antibody and a TRITC-tagged anti-Phalloidin antibody was added to each well and allowed to incubate at room temperature for 45 minutes. Substrates were then washed using the method described previously. Cytoskeletal staining was analyzed using an Olympus IX51 inverted epifluorescent microscope equipped with FITC and TRITC filter cube sets.

hMSCs [3] = assay: hMSC projected cell area on SAMs presenting RGDSP and TYRSRKY; type: cell-based, human
Protocol: as §1, §2

[4] = Binding of synthetic KRT peptide to hydroxyapatite (micro-BCA depletion); conditions: 50 μM peptide, 1 mg hydroxyapatite, 30 minutes at 37° C.
Protocol: A 50 μM peptide solution containing the synthetic KRT peptide, KRTGQYKLGGGAAAA(Gla)PRR(Gla)VA(Gla)L (SEQ ID NO: 12), was incubated with 1 mg of hydroxyapatite particles for 30 minutes at 37° C. After incubation, the concentration of peptide in solution was determined using a micro-BCA assay (Pierce) as a measure of the depletion of the peptide from solution due to hydroxyapatite binding.

hMSCs [5] = assay: hMSC proliferation on KRTGQYKL-SAMs in the presence of FBS and PD 173074; type: cell-based, human; conditions: 200 nM PD 173074, 10% FBS; FIG. 11
Protocol: Proliferation of hMSCs cultured on KRTGQYKL-SAMs in medium supplemented with FBS and PD 173074 was determined PD 173074 is a soluble inhibitor of FGF-2 and FGF-4 cognate receptors FGF receptor-1 and -3. hMSCs were cultured on SAMs presenting 2% RGDSP (SEQ ID NO: 8) and either 2% KRTGQYL (SEQ ID NO: 1) or TYRKKGLQ (SEQ ID NO: 9) in medium supplemented with 200 nM PD 173074 and 10% FBS.
hMSCs were expanded at low density on tissue culture treated polystyrene plates using the method described previously by Sotiropoulou et al. to maintain […] (Sotiropoulou et al., “Characterization of the optimal culture conditions for clinical scale production of human mesenchymal stem cells,” Stem Cells, 24:462 (2006)). At passage 6, cells were harvested from the plate, suspended in medium supplemented with 10% fetal bovine serum, and counted using a hemacytometer. Cells were collected as a pellet by centrifugation at 1100 rpm for 5 minutes, the media was decanted off of the pellet, and the cells were suspended in αMEM supplemented with 10% FBS at a density of 20,000 cells/250 μL. […] The total number of cells per viewing area was counted manually for 3 samples per condition.

recombinant human FGF-2 = biological target: T1, recombinant human FGF-2 (human, UniProt P09038 135-288, limits assumed); assay: PM-IRRAS of 1% KRTGQYKL-SAMs after 20 min in 1x PBS with FGF-2
T1 construct: also called rhFGF-2; fibroblast growth factor-2
T1 sequence (P09038 135-288 limits assumed): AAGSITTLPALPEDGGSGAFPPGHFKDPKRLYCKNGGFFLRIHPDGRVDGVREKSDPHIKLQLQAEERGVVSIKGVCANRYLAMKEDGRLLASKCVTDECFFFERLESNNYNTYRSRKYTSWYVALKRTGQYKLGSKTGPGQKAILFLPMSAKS
Protocol: PM-IRRAS was used to characterize FGF-2 binding onto […]-SAMs. 1% […] SAMs were incubated in a lx PBS solution (pH 7.4) containing 10 μg/mL recombinant human FGF-2 for 20 minutes and analyzed using PM-IRRAS.

[6] = biological target: T2, alpha-5 beta-1 integrins (on human mesenchymal stem cells) (human, UniProt P08648 42-1049; P05556 21-798); assay: hMSCs cultured on RGDSP-presenting SAMs in osteogenic induction medium (cell area, cell number, alkaline phosphatase)
T2 construct: whole, on cells; Endogenous integrin on hMSCs; also called hMSC integrin receptors
T2 sequence (P08648 42-1049, chain 1 of 2): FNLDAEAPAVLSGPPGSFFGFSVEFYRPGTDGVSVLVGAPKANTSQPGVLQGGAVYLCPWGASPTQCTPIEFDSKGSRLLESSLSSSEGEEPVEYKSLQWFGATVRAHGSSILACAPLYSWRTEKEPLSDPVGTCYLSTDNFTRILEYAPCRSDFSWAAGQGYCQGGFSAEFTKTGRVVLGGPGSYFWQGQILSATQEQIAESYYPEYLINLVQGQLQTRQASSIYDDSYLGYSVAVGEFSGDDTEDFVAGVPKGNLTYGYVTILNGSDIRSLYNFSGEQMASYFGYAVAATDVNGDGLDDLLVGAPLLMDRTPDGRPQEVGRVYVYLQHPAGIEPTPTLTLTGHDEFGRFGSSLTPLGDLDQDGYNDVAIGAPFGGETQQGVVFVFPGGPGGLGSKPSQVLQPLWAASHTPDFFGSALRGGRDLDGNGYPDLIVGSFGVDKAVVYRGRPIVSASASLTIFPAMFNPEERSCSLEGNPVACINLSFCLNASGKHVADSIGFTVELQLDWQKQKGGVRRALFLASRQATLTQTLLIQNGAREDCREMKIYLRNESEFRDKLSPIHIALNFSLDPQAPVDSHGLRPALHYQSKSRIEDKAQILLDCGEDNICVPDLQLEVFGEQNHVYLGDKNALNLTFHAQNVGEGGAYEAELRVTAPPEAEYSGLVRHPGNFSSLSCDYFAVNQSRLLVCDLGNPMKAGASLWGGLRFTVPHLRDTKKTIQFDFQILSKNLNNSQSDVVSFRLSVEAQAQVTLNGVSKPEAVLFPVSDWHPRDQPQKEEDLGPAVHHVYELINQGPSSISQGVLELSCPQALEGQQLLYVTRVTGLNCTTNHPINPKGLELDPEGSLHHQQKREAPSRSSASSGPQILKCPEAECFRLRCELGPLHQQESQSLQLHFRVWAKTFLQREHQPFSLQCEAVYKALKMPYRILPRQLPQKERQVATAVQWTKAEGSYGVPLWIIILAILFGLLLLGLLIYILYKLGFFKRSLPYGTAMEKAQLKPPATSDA
T2 sequence (P05556 21-798, chain 2 of 2): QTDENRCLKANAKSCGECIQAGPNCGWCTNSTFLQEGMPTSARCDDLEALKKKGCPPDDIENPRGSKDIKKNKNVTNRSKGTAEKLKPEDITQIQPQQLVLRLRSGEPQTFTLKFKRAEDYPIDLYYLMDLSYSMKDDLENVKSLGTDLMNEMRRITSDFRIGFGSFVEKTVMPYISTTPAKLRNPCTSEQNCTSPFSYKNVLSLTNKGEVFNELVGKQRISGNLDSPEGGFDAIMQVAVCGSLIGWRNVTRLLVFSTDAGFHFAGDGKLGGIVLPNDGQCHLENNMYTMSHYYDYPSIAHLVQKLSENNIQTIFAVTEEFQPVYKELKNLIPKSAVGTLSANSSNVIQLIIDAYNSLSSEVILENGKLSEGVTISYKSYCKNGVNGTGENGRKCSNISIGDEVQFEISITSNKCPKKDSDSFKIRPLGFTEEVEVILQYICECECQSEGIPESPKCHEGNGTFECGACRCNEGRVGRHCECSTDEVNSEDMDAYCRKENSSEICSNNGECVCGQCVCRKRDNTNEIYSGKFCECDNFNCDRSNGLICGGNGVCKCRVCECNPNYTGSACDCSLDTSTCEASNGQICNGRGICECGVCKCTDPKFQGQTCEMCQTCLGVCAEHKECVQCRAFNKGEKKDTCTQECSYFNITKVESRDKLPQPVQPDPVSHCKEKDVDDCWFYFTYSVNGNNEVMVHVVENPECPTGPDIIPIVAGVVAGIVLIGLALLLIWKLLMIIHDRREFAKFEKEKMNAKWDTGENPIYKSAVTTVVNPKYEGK
Protocol: SAMs were prepared as previously described. Low passage number hMSCs were harvested from polystyrene plates and seeded on SAMs presenting RGDSP (SEQ ID NO: 8), RGDSP(SEQ ID NO: 8)/[…](SEQ ID NO: 1), or RGDSP(SEQ ID NO: 8)/TYRSRKY(SEQ ID NO: 2), at specified surface densities at a cell density of 2500 cells/cm². Cells were cultured in αMEM basal medium supplemented with 10% FBS, 50 μg/mL 2-phosphate ascorbic acid, 10 mM β-glycerophosphate, and 100 nM dexamethasone for 7 days. Brightfield images of cells were collected to measure cell projected area and quantification of cell number as a function of time. At the end of the 7-day culture period, alkaline phosphatase activity was analyzed using the SensoLyte FDP alkaline phosphatase assay kid (Anaspec, Fremont, Calif.).

KRTGQYKL
HUVEC number ([1]; surface density of 2% KRTGQYKL, 1 ng/mL FGF-2): significant increase | HUVEC number ([1]; surface density of KRTGQYKL>0.1%, 5 ng/mL FGF-2, by 72 hours): significant increase

RGDSP
number of focal adhesion complexes versus RGDSP surface density (hMSCs [2]; FIGS. 36 and 38): direct correlation | hMSC attachment (number per unit area) (hMSCs [2]): significant number of hMSCs were present | hMSC morphology (hMSCs [2]; higher RGDSP densities (RGDSP=0.001 or 0.01)): more well-spread morphology | hMSC morphology (hMSCs [2]; low density of RGDSP (RGDSP=0.0001)): polarized, spindle-shaped morphology

TYRSRKY
hMSC morphology (projected cell area) (hMSCs [3]; 0.1% RGDSP, 0.1-1% TYRSRKY, 10% FBS): rounded morphology | hMSC morphology (projected cell area) (hMSCs [3]; 0.1% RGDSP, high TYRSRKY density, absence of serum): well-spread morphology | hMSC morphology (projected cell area) (hMSCs [3]; 0.1% RGDSP, low TYRSRKY surface density, absence of serum): rounded hMSCs morphology | hMSC morphology (projected cell area) (hMSCs [3]; 1.0% RGDSP, 0.1-1.0% TYRSRKY, absence of serum): well-spread hMSC morphology | hMSC spreading (hMSCs [3]; 1.0% RGDSP, TYRSRKY>0.5%, 10% FBS): decrease in hMSC spreading | hMSC morphology (projected cell area) (hMSCs [3]; SAMs presenting 0.1-1.0% TYRSRKY, no RGDSP, presence or absence of serum): rounded morphology

RGESP (not fully specified (C-terminus)) [amine-terminated peptide co-immobilized with RGDSP on SAMs, reference compound]
influence of co-immobilized peptide on RGDSP-dependent hMSC adhesion (hMSCs [2]): did not influence RGDSP-dependent hMSC adhesion | hMSC attachment (number per unit area) (hMSCs [2]): absent

KRTGQYKLGGGAAAA(Gla)PRR(Gla)VA(Gla)L (KRTGQYKLGGGAAAA[Gla]PRR[Gla]VA[Gla]L; not fully specified (C-terminus); printed as KRTGQYKLGGGAAAA(Gla)PRR(Gla)VA(Gla)L) [KRT peptide]
peptide bound by hydroxyapatite particles [4]: 66.08 nmol/m^2

CCN(CC)CCCCNc1ncc2cc(-c3cc(OC)cc(OC)c3)c(NC(=O)NC(C)(C)C)nc2n1 [PD 173074]
increased proliferation of hMSCs on KRTGQYKL SAMs (hMSCs [5]): completely abolished

B1: KRTGQYKL synthetic heparin-binding peptide (SEQ ID NO: 1), immobilized on a self-assembled monolayer (peptide)
peptide: KRTGQYKL-NH2
modifications: also: immobilized on oligo(ethylene glycol) alkanethiolate SAM on gold
notes: Made by Fmoc solid phase synthesis on Rink amide MBHA resin
binding result (recombinant human FGF-2): no binding (tested: 10 µg/mL recombinant human FGF-2)

B2: RGDSP cell adhesion (integrin-binding) peptide (SEQ ID NO: 8), immobilized on a self-assembled monolayer (peptide)
peptide: RGDSP-NH2
modifications: also: immobilized on SAM on gold
notes: Made by Fmoc solid phase synthesis on Rink amide MBHA resin and conjugated to a SAM on gold; also called RGDSP SAMs; cell-adhesion peptide
binding result [6]: binds
